Data set [1] has as its target Menin/Histone-lysine N-methyltransferase MLL (Homo sapiens, UniProt O00255). Nature of the data set: Inhibition of menin (unknown origin)/N-terminal FITC-labeled MLL1 peptide (unknown origin) interaction incubated for 30 min by fluorescence polarization assay. The format is protein assay.
Data set [2] deals with REH. The experiment in a line: Antiproliferative activity against human menin-insensitive REH cells assessed as inhibition of cell growth incubated for 7 days by MTS assay. The class given is functional, cell-based. The settings on record: 168 h.
Data set [3] relates to MV4-11. Nature of the data set: Antiproliferative activity against human menin-sensitive MV4-11 cells assessed as inhibition of cell growth incubated for 7 days by MTS assay. The class given is functional, cell-based. Particulars: MV4-11, 168 h. Background: Tetrazolium assays rely on reduction of a dye to a coloured formazan, in cell work by metabolically active cells.
Data set [4] can be described thus: Cytotoxicity against human PBMC cells assessed as cell viability incubated for 7 days by MTS assay. The format is toxicity, cell-based.

Sequence of Menin/Histone-lysine N-methyltransferase MLL (O00255 whole entry): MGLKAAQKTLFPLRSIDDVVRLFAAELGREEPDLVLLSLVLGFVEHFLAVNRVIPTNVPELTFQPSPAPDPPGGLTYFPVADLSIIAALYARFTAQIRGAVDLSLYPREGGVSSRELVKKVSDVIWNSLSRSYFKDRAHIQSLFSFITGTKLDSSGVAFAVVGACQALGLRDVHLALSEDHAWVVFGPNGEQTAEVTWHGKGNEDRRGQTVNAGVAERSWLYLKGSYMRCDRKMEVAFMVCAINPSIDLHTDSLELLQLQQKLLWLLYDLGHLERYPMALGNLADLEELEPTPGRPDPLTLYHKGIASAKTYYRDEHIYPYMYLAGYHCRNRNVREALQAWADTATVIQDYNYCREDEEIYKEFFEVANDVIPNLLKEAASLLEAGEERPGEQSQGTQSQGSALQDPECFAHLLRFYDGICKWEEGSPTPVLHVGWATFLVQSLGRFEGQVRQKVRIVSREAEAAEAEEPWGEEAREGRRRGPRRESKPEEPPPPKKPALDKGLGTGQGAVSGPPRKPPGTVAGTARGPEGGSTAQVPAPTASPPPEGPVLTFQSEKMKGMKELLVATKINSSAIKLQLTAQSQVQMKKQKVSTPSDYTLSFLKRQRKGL
Sequence of Menin/Histone-lysine N-methyltransferase MLL (Q03164 1-2718 partner limits assumed): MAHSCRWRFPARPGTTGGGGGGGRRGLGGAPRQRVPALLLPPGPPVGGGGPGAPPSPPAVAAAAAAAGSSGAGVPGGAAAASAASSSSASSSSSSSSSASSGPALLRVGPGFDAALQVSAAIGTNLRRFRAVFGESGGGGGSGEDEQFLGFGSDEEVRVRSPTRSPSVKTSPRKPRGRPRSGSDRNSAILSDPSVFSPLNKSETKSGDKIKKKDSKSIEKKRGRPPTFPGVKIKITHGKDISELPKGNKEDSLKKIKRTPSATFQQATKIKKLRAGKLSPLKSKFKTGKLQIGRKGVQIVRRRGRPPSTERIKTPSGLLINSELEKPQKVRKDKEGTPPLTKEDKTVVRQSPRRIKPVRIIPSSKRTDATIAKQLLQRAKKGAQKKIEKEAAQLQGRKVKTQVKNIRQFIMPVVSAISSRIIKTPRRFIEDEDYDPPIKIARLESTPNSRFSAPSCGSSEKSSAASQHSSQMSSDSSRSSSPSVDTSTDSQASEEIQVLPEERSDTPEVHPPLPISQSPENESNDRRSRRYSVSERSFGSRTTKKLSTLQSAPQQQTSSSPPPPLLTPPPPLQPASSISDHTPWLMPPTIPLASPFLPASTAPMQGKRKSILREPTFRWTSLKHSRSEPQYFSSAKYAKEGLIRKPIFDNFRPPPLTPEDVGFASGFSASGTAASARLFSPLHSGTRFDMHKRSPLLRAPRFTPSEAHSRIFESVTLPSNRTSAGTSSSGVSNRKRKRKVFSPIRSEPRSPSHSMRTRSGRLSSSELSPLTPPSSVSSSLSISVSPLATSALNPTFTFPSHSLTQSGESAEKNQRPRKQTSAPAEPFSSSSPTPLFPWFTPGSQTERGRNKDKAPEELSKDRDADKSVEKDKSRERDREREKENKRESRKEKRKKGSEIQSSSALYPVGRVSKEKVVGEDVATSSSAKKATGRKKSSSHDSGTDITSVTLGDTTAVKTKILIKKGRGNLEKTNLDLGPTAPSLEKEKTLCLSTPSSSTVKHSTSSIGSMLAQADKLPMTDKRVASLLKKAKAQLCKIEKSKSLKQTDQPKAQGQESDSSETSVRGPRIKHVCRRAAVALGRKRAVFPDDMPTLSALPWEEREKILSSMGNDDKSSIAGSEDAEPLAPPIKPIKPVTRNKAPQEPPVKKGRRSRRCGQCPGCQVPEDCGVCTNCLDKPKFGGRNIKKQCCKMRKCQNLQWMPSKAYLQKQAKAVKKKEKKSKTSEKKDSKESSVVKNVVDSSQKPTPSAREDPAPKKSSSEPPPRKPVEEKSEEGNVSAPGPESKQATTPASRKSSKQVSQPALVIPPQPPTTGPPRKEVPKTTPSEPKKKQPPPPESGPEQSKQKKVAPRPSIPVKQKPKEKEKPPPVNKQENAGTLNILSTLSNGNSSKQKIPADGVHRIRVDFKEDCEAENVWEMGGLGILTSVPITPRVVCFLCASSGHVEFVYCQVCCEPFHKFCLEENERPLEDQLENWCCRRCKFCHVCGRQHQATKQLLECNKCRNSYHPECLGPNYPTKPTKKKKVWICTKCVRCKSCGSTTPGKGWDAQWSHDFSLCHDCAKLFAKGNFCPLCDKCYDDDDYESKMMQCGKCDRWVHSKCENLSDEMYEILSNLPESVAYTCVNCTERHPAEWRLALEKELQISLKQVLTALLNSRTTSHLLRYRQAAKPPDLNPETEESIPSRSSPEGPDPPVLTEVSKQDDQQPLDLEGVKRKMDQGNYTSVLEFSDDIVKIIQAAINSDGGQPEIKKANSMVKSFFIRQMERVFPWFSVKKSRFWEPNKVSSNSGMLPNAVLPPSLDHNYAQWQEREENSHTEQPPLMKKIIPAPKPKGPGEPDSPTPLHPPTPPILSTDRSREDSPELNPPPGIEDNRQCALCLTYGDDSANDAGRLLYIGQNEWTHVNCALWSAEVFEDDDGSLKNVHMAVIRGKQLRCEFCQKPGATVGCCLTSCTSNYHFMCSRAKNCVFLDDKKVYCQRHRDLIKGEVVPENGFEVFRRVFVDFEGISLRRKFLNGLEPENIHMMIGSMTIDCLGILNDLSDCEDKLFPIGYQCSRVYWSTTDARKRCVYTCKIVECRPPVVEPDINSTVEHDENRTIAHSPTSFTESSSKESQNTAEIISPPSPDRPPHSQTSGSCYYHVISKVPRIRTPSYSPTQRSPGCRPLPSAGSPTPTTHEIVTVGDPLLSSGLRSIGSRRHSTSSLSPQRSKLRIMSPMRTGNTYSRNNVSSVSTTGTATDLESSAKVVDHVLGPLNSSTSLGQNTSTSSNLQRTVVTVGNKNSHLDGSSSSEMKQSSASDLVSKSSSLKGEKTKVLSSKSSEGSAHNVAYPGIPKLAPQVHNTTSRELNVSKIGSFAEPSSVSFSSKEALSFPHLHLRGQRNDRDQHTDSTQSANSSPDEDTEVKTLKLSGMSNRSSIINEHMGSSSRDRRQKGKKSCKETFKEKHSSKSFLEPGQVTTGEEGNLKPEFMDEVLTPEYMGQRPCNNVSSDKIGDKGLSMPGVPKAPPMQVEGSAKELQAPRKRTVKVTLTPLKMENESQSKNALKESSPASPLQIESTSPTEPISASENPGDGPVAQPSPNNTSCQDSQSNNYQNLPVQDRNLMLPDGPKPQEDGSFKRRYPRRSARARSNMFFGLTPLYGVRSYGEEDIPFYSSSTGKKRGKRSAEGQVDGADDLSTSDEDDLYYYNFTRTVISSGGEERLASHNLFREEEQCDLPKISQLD
Sequence of Menin/Histone-lysine N-methyltransferase MLL (Q03164 2719-3969 partner limits assumed): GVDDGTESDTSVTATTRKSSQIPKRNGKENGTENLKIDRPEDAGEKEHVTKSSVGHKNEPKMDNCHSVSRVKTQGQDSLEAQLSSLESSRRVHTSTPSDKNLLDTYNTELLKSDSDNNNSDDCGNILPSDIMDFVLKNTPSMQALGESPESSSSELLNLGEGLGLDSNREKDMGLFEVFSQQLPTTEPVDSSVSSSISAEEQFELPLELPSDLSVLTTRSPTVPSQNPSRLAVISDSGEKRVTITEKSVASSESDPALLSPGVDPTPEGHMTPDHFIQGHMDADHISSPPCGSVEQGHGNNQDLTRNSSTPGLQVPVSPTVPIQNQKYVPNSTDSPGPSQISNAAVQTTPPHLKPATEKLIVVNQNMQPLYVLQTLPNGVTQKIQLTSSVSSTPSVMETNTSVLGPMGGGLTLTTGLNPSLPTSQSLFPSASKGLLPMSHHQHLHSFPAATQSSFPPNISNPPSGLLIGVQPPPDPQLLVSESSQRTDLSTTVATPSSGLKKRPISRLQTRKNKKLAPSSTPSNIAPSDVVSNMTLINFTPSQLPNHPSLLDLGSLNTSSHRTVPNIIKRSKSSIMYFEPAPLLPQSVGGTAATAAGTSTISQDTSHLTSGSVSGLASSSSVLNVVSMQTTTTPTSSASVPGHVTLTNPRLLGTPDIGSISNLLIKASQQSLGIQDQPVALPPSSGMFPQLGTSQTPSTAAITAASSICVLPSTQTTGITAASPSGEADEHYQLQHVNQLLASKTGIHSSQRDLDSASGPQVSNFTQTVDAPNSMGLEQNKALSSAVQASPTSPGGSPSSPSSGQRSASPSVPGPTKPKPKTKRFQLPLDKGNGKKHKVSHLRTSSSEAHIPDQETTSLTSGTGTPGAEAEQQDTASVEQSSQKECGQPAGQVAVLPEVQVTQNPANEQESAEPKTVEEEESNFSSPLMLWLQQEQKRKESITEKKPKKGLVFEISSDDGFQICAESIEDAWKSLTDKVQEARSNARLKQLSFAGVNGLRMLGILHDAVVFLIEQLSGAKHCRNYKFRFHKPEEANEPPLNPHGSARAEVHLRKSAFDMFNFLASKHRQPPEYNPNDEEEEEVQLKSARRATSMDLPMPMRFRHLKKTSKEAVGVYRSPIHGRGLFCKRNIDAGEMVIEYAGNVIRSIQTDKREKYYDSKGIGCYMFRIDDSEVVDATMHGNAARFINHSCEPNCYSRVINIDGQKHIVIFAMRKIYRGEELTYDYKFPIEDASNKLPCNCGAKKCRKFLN

In the case of `CCN(C(=O)c1cc(F)ccc1Nc1cncnc1N1CCN(CC2CN(c3ccc(S(C)(=O)=O)cc3)C2)CC1)C(C)C`, 66.5 nM corresponded to half-maximal inhibition in data set [1] (IC50).

With `CCC(=O)N[C@@H]1CCN(S(=O)(=O)c2ccc(N3CC(CN4CCN(c5ncncc5Nc5ccc(F)cc5C(=O)N(CC)C(C)C)CC4)C3)cc2)C1`, the figures for the IC50 in data set [1], in data set [2] and in data set [3] were 52.2 nM, greater than 20000 nM and 1470 nM, respectively.

The molecule `CCN(C(=O)c1cc(F)ccc1Nc1cncnc1N1CCN(CC2CN(c3ccc(C#N)cc3)C2)CC1)C(C)C` gave an IC50 in data set [1] of 38.8 nM.

`C=CC(=O)Nc1ccc(N2CC(CN3CCN(c4ncncc4Nc4ccc(F)cc4C(=O)N(C(C)C)C(C)C)CC3)C2)cc1`: the half-maximal inhibitory concentration (IC50) in data set [1] is 34 nM; in data set [2], 4280 nM; in data set [3] it was 530 nM.

`CCN(C(=O)c1cc(F)ccc1Nc1cncnc1N1CCN(C(C)C2CN(c3ccc(S(=O)(=O)C4CN(C(=O)/C=C/CN(C)C)C4)cc3)C2)CC1)C(C)C` (centres undefined): the IC50 in data set [1] amounted to 18.4 nM; in data set [2] it was 7900 nM; in data set [3], 140 nM.

Consider `CCN(C(=O)c1cc(F)ccc1Nc1cncnc1N1CCN(C(=O)C2CN(c3ccc(S(=O)(=O)C4CN(C(=O)/C=C/CN(C)C)C4)cc3)C2)CC1)C(C)C`, for which the half-maximal inhibitory concentration (IC50) in data set [1] was 12.9 nM; in data set [2], greater than 20000 nM; in data set [3], 50 nM.

In the case of `CCC(=O)NC1CN(S(=O)(=O)c2ccc(N3CC(CN4CCN(c5ncncc5Nc5ccc(F)cc5C(=O)N(CC)C(C)C)CC4)C3)cc2)C1`, the half-maximal inhibitory concentration (IC50) in data set [1] is 34.2 nM; in data set [2] it was greater than 20000 nM; in data set [3], 875 nM.

With `CCC(=O)Nc1cccc(N2CC(CN3CCN(c4ncncc4Nc4ccc(F)cc4C(=O)N(C(C)C)C(C)C)CC3)C2)c1`, the IC50 in data set [1] is 95.6 nM; in data set [2], greater than 20000 nM; in data set [3], 1510 nM.

Regarding `C=CC(=O)N1CC(S(=O)(=O)c2ccc(N3CC(CN4CCN(c5ncncc5Nc5ccc(F)cc5C(=O)N(C(C)C)C(C)C)CC4)C3)cc2)C1`, the figures for the concentration for half-maximal inhibition (IC50) in data set [1], in data set [2] and in data set [3] were 33.9 nM, 4810 nM and 220 nM, respectively.

As to `CCN(C(=O)c1cc(F)ccc1Nc1cncnc1N1CCN(CC2CN(c3ccc(S(=O)(=O)C4CN(C(=O)/C=C/CN(C)C)C4)cc3)C2)CC1)C(C)C`, the IC50 came to 14.2 nM in data set [1], 1930 nM in data set [2] and 30 nM in data set [3].

In data set [1], `CCN(C(=O)c1cc(F)ccc1Nc1cncnc1N1CCN(CC2CN(c3ccc([N+](=O)[O-])cc3)C2)CC1)C(C)C` returned an IC50 of 50.2 nM.

As to `CCN(C(=O)c1cc(F)ccc1Oc1cncnc1N1CCN(CC2CN(c3ccc(S(=O)(=O)C4CN(C(=O)/C=C/CN(C)C)C4)cc3)C2)CC1)C(C)C`, the half-inhibitory concentration (IC50) in data set [1] was 14.5 nM; in data set [2] it was 11400 nM; in data set [3], 40 nM.

On to `CCN(C(=O)c1cc(F)ccc1Nc1cncnc1N1CCN(CC2CN(c3ccc(S(=O)(=O)N4CC[C@@H](NC(=O)/C=C/CN(C)C)C4)cc3)C2)CC1)C(C)C`, for which the half-maximal inhibitory concentration (IC50) is 11.3 nM in data set [1], greater than 20000 nM in data set [2] and 614 nM in data set [3].

Regarding `CCN(C(=O)c1cc(F)ccc1Nc1cncnc1N1CCN(CC2CN(c3ccc(S(=O)(=O)C4CN(C(=O)/C=C/CN5CCCCC5)C4)cc3)C2)CC1)C(C)C`, the results for the IC50 in data set [1], in data set [2] and in data set [3] were 16.6 nM, 7880 nM and 30 nM, respectively.

As for `C=CC(=O)N[C@@H]1CCN(S(=O)(=O)c2ccc(N3CC(CN4CCN(c5ncncc5Nc5ccc(F)cc5C(=O)N(CC)C(C)C)CC4)C3)cc2)C1`, the IC50 in data set [1] is 31.8 nM; in data set [2] it was greater than 20000 nM; in data set [3] it was 1260 nM.

Regarding `CCN(C(=O)c1cc(F)ccc1Nc1cncnc1N1CCN(CC2CN(c3ccc(S(=O)(=O)C4CN(C(=O)/C=C/CN5CCCC5)C4)cc3)C2)CC1)C(C)C`, the half-maximal inhibitory concentration (IC50) in data set [1] turned out to be 16.3 nM; in data set [2], 6980 nM; in data set [3], 32 nM.

As to `CCN(C(=O)c1cc(F)ccc1Nc1cncnc1N1CCN(CC2CN(c3ccc(F)cc3)C2)CC1)C(C)C`, the IC50 in data set [1] is 276 nM.

For the molecule `C=CC(=O)Nc1cccc(N2CC(CN3CCN(c4ncncc4Nc4ccc(F)cc4C(=O)N(C(C)C)C(C)C)CC3)C2)c1`, the values for the IC50 in data set [1], in data set [2] and in data set [3] were 97.3 nM, 4420 nM and 1330 nM, respectively.

For `CCN(C(=O)c1cc(F)ccc1Nc1cncnc1N1CCN(CC2CN(c3ccc(NS(C)(=O)=O)cc3)C2)CC1)C(C)C`, the IC50 in data set [1] is 27.3 nM.

Take `C=CC(=O)NC1CN(S(=O)(=O)c2ccc(N3CC(CN4CCN(c5ncncc5Nc5ccc(F)cc5C(=O)N(CC)C(C)C)CC4)C3)cc2)C1`: the IC50 in data set [1] is 22.9 nM; in data set [2] it was greater than 20000 nM; in data set [3] it was 283 nM.

Turning to `CCC(=O)N1CC(S(=O)(=O)c2ccc(N3CC(CN4CCN(c5ncncc5Nc5ccc(F)cc5C(=O)N(C(C)C)C(C)C)CC4)C3)cc2)C1`, the IC50 in data set [1] was 32.8 nM; in data set [2], greater than 20000 nM; in data set [3] it was 210 nM.

In the case of `CCC(=O)c1ccc(N2CC(CN3CCN(c4ncncc4Nc4ccc(F)cc4C(=O)N(CC)C(C)C)CC3)C2)cc1`, in data set [1], inhibition was half-maximal at 49.7 nM (IC50).

In data set [1], `CCN(C(=O)c1cc(F)ccc1Nc1cncnc1N1CCN(CC2CN(c3ccc(S(N)(=O)=O)cc3)C2)CC1)C(C)C` returned an IC50 of 21.6 nM.

With `CCN(C(=O)c1cc(F)ccc1Nc1cncnc1N1CCN(CC2CN(c3ccc(NC(=O)/C=C/CN(C)C)cc3)C2)CC1)C(C)C`, the results for the IC50 in data set [1], in data set [2] and in data set [3] were 61.9 nM, greater than 20000 nM and 1100 nM, respectively.

For the molecule `CCC(=O)Nc1ccc(N2CC(CN3CCN(c4ncncc4Nc4ccc(F)cc4C(=O)N(C(C)C)C(C)C)CC3)C2)cc1`, the concentration for half-maximal inhibition (IC50) in data set [1] is 48.3 nM; in data set [2], 8260 nM; in data set [3] it was 770 nM.

Turning to `CCN(C(=O)c1cc(F)ccc1Nc1cncnc1N1CCN(CC2CN(c3ccc(S(=O)(=O)N4CC[C@H](NC(=O)/C=C/CN(C)C)C4)cc3)C2)CC1)C(C)C`, the figures for the IC50 in data set [1], in data set [2] and in data set [3] were 16.7 nM, greater than 20000 nM and 644 nM, respectively.

For `C=CC(=O)N[C@H]1CCN(S(=O)(=O)c2ccc(N3CC(CN4CCN(c5ncncc5Nc5ccc(F)cc5C(=O)N(CC)C(C)C)CC4)C3)cc2)C1`, the IC50 in data set [1] is 51.4 nM; in data set [2], greater than 20000 nM; in data set [3], 607 nM.

For `CCN(C(=O)c1cc(F)ccc1Oc1cncnc1N1CC2(CCN(C[C@H]3CC[C@H](NS(=O)(=O)CC)CC3)CC2)C1)C(C)C` [REVUMENIB], the IC50 at 7 days in data set [4] was greater than 3000 nM. For the same molecule, the IC50 in data set [1] came to 15.5 nM.

`CCN(C(=O)c1cc(F)ccc1Nc1cncnc1N1C[C@@H](C)N(CC2CN(c3ccc(S(=O)(=O)C4CN(C(=O)/C=C/CN(C)C)C4)cc3)C2)C[C@@H]1C)C(C)C`: the IC50 in data set [1] came out at 22.3 nM; in data set [2] it was 18000 nM; in data set [3] it was 120 nM.

Consider `CCN(C(=O)c1cc(F)ccc1Nc1cncnc1N1CCN(CC2CN(c3ccc(S(=O)(=O)N4CC(NC(=O)/C=C/CN(C)C)C4)cc3)C2)CC1)C(C)C`, for which the IC50 was 12.3 nM in data set [1], greater than 20000 nM in data set [2] and 281 nM in data set [3].

In the case of `CCN(C(=O)c1cc(F)ccc1Nc1cncnc1N1CCN(CC2CN(c3ccc(C(F)(F)F)cc3)C2)CC1)C(C)C`, the concentration for half-maximal inhibition (IC50) in data set [1] worked out at 186 nM.

Consider `CCC(=O)N[C@H]1CCN(S(=O)(=O)c2ccc(N3CC(CN4CCN(c5ncncc5Nc5ccc(F)cc5C(=O)N(CC)C(C)C)CC4)C3)cc2)C1`, for which the half-maximal inhibitory concentration (IC50) in data set [1] is 61.3 nM; in data set [2], greater than 20000 nM; in data set [3] it was 2240 nM.

Broadly, the IC50 is the concentration at which inhibition is half-maximal.

These data come from ChEMBL document CHEMBL6092156, “Design and development of a series of 4-(piperazin-1-yl)pyrimidines as irreversible menin inhibitors” (Eur J Med Chem, 2024).
